What all share (assay type): in vivo
Assay [1] relates to Peas (Pisum sativum). Nature of the assay: Post-emergence foliar spray, herbicidal/growth regulant response, peas. The note with it: Lathyrus oleraceus, 168 h, foliar spray 11.2 kg/ha, 7 days, 0=no effect, 100=complete kill, read-out: herbicidal or growth regulant response index. As to the method:
(§1) Seeds of the plant species listed below were sown in anodised aluminium pans, 19 cm long×9.5 cm wide×5 cm deep, containing John Innes I potting compost. They were then watered and placed in a controlled environment room (22° C.; 65-85% relative humidity; 14 hours per day artificial illumination at 13,000 lux). Fourteen days after sowing, the seedlings received a foliar spray of a compound listed below, formulated as a solution in 1:1 by volume aqueous acetone. The concentration of active ingredient and volume of application were adjusted so as to be equivalent to a rate of 11.2 kg/ha in 450 liters per hectare. After seven days growth in the controlled environment room, the plants were visually assessed for any herbicidal or growth regulant response. All differences from the untreated control were scored according to an index where 0=no effect and 100=complete kill.
(§2) The product of Example 95 was tested according to the procedure of Examples 49-55.

The subject of assay [2] is Mustard (Sinapis alba). Nature of the assay: Post-emergence foliar spray, herbicidal/growth regulant response, mustard. Particulars: 168 h, foliar spray 11.2 kg/ha, 7 days, 0=no effect, 100=complete kill, read-out: herbicidal or growth regulant response index. The method, then: as §1, §2
Assay [3] has as its system Linseed (Linum usitatissimum). Nature of the assay: Post-emergence foliar spray, herbicidal/growth regulant response, linseed. Particulars: 168 h, foliar spray 11.2 kg/ha, 7 days, 0=no effect, 100=complete kill, read-out: herbicidal or growth regulant response index. As to the method:
as §1, §2

Assay [4] relates to Ryegrass (Lolium perenne). Nature of the assay: Post-emergence foliar spray, herbicidal/growth regulant response, ryegrass. Particulars: 168 h, foliar spray 11.2 kg/ha, 7 days, 0=no effect, 100=complete kill, read-out: herbicidal or growth regulant response index. As to the method: as §1, §2
Assay [5] deals with Sugarbeet (Beta vulgaris). Nature of the assay: Post-emergence foliar spray, herbicidal/growth regulant response, sugarbeet. The note with it: 168 h, foliar spray 11.2 kg/ha, 7 days, 0=no effect, 100=complete kill, read-out: herbicidal or growth regulant response index. As to the method:
as §1, §2

Another assay has as its system Oat (Avena sativa). Nature of the assay: Post-emergence foliar spray, herbicidal/growth regulant response, oat. The note with it: 168 h, foliar spray 11.2 kg/ha, 7 days, 0=no effect, 100=complete kill, read-out: herbicidal or growth regulant response index. As to the method:
as §1, §2

Assay [6] concerns French beans (Phaseolus vulgaris). Nature of the assay: Post-emergence foliar spray, herbicidal/growth regulant response, French beans. Particulars: foliar spray 11.2 kg/ha, 7 days, 0=no effect, 100=complete kill. The method, then:
as §1, §2

In assay [7] the test system is Peas (Pisum sativum). Nature of the assay: Soil incorporation (attaclay/sand dust), growth regulatory or herbicidal effects, peas. The note with it: Lathyrus oleraceus, 504 h, soil incorporation 26 ppm, 21 days, 0=no effect, 100=complete kill, read-out: growth regulatory or herbicidal effect score. The gist of the method:
(§3)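 Active ingredient formulated as attaclay/sand dust and mixed into John Innes I potting compost at 26 or 130 ppm w/v (about 11.2 or 56 kg a.i./ha cultivated to 5 cm). Seeds sown in treated soil, grown 21 days at 22° C, 65-85% RH, 14 h light at 13,000 lux; visual score 0-100 versus untreated control.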

The subject of assay [8] is Mustard (Sinapis alba). In words: Soil incorporation (attaclay/sand dust), growth regulatory or herbicidal effects, mustard. Particulars: 504 h, soil incorporation 26 ppm, 21 days, 0=no effect, 100=complete kill, read-out: growth regulatory or herbicidal effect score. In outline:
as §3

Assay [9] relates to Linseed (Linum usitatissimum). In words: Soil incorporation (attaclay/sand dust), growth regulatory or herbicidal effects, linseed. The note with it: 504 h, soil incorporation 26 ppm, 21 days, 0=no effect, 100=complete kill, read-out: growth regulatory or herbicidal effect score. In outline: as §3
For the next assay, the system named is Maize (Zea mays). Nature of the assay: Soil incorporation (attaclay/sand dust), growth regulatory or herbicidal effects, maize. Particulars: 504 h, soil incorporation 26 ppm, 21 days, 0=no effect, 100=complete kill, read-out: growth regulatory or herbicidal effect score. In outline: as §3
Another assay concerns Oats (Avena sativa). Nature of the assay: Soil incorporation (attaclay/sand dust), growth regulatory or herbicidal effects, oats. The note with it: 504 h, soil incorporation 26 ppm, 21 days, 0=no effect, 100=complete kill, read-out: growth regulatory or herbicidal effect score. The gist of the method: as §3
Assay [10] relates to Ryegrass (Lolium perenne). Nature of the assay: Soil incorporation (attaclay/sand dust), growth regulatory or herbicidal effects, ryegrass. The note with it: 504 h, soil incorporation 26 ppm, 21 days, 0=no effect, 100=complete kill, read-out: growth regulatory or herbicidal effect score. The gist of the method:
as §3

Assay [11] concerns Wheat (Triticum aestivum). Nature of the assay: Pre-emergence soil surface spray, wheat. The note with it: soil surface spray 2.8 kg/ha, 21 days, 0=no effect, 100=complete kill. An excerpt: (§4) Seeds of the plant species listed below were sown in John Innes I potting compost in aluminium pans, 19 cm long×9.5 cm wide×5.0 cm high, one species per pan. The soil surface was then sprayed with a compound listed below, formulated as a solution in 1:1 by volume aqueous acetone except for the compound of Example 44 which was formulated as an aqueous suspension containing 1000 parts per million of the wetting agent Lissapol NX (nonylphenol/ethylene oxide condensate). Each compound was applied at a rate of 2.8 kg of active ingredient per hectare in 450 liters of spray liquid per hectare. The pans were then watered, and placed in a controlled environment room (22° C., relative humidity 65-85%, 14 hours per day artificial illumination at 17,000 lux) for 21 days. The plants were then visually assessed for any growth regulatory or herbicidal effects. All differences from an untreated control were scored on a scale from 0-100, where 0 signifies no effect and 100 signifies complete kill.

The subject of the next assay is Barley (Hordeum vulgare). Nature of the assay: Pre-emergence soil surface spray, barley. Particulars: soil surface spray 2.8 kg/ha, 21 days, 0=no effect, 100=complete kill.
Source text: as §4

A further assay relates to Wild Oat (Avena fatua). Nature of the assay: Pre-emergence soil surface spray, wild oat. The note with it: soil surface spray 2.8 kg/ha, 21 days, 0=no effect, 100=complete kill.
Source text: as §4

For assay [12], the system named is Blackgrass (Alopecurus myosuroides). Nature of the assay: Pre-emergence soil surface spray, blackgrass. The note with it: soil surface spray 2.8 kg/ha, 21 days, 0=no effect, 100=complete kill.
Source text: as §4

Assay [13] has as its system Barnyardgrass (Echinochloa crus-galli). In words: Pre-emergence soil surface spray, barnyardgrass. The note with it: soil surface spray 2.8 kg/ha, 21 days, 0=no effect, 100=complete kill.
Source text: as §4

Assay [14] relates to Crabgrass (Digitaria sanguinalis). Nature of the assay: Pre-emergence soil surface spray, crabgrass. The note with it: soil surface spray 2.8 kg/ha, 21 days, 0=no effect, 100=complete kill.
Source text: as §4

Each structure is given as a SMILES string.

With `CCCS(=O)(=O)N(c1c(C)cccc1C)C(C)C(=O)OC(C)C` (stereo not shown) [Example 3], the pest or weed control at 11200 g/ha with Peas (Pisum sativum) [1] was 5%; with Mustard (Sinapis alba) [2], 90%; in assay [3] it was 30%; in [4] it was 15%. Also, the plant injury at 11200 g/ha is 90% in [5] and 5% with Oat (Avena sativa). Also, the “herbicidal or growth regulant response index” value in assay [6] is given as 80. The pest or weed control at 26 µg/mL in the assay with Peas (Pisum sativum) [7] was 0%; in the assay on Mustard (Sinapis alba) [8] it was 90%; in assay [9], 20%; in [10], 90%. Also, the plant injury at 26 µg/mL in the assay with Maize (Zea mays) and in the assay on Oats (Avena sativa) was 20% each time. Also, the “growth regulatory or herbicidal effect score” value was 0 in assay [11]; 0 in the assay with Barley (Hordeum vulgare); 80 in the assay on Wild Oat (Avena fatua); 90 in [12]; 60 in assay [13]; 90 in [14].

The values are drawn from US4309559A, “Sulphonamides useful as pesticides” (FBC Limited, priority 1977, dated 1982).
